Reference: patent publication US11878980B2, “Solid forms of TTK inhibitor” (UNIVERSITY HEALTH NETWORK, priority 2016, dated 2024)
Where a name gives a salt, the structure may show the parent alone.

What was measured:
[1] = Pharmacokinetic analysis after single oral powder-in-capsule dose, dog plasma by LC/MS; assay type: in vivo, beagle dogs; conditions: for AUC0-last / Cmax: Dog, PO, 5 mg/kg; for plasma concentrations relative to free base compound (I) (in words): beagle dogs, oral
Description: (§1) A single oral, powder-in-capsule dose of each form was administered to three (n=3) female Sprague-Dawley rats and three male beagle dogs (n=3) at 5 mg active pharmaceutical ingredient per kg body weight. The plasma was then analyzed for compound plasma levels by LC/MS.
(§2) Compound was milled using a mortar and pestle and was carefully dispensed into a gelatin capsule, tared on an analytical balance. Loading continued until the desired compound mass was achieved. Size 9 capsules were used for rat dosing and size 3 capsules were used for dogs. Note: compound load was corrected for the bioequivalence ratio of each form.
(§3) Following oral dosing, blood was drawn from the lateral saphenous vein into lithium heparin coated tubes (rats) or K2EDTA coated tubes (dogs), at designated time points. Plasma was collected and stored frozen at −80° C. until analysis.
Plasma samples (20 μL) and spiked plasma standard samples were diluted eleven fold with ice cold acetonitrile containing 40 ng/mL Diclofenac as internal standard. The mixture was vortexed for 2 min and centrifuged. The 0.5 μL supernatant was injected into a Waters Acquity BEH 1.7 μm 2.1×50 mm column at 0.6 mL/min by an Acquity UPLC. The column was equilibrated with 10% methanol in water. Compounds were eluted with a gradient to 95% methanol. Mobile phases contained 0.025% (v/v) formic acid and 1 mM NH4OAc.
Column eluent was analyzed by an electrospray ionization tandem quadrupole mass spectrometry system (ESI-MS/MS, an API-6500). Eluent composition was analyzed for one ion-pairs specific for the internal standard and one ion-pairs specific for the analyte. Experimental samples were compared with standard curve samples to determine compound concentrations. Pharmacokinetic parameters were determined using WinNonlin Professional 6.2.

[2] = Hygroscopicity (water sorption at 90% RH); assay type: physicochemical
[3] = Solubility (Solubilitymax, pHmax) of crystalline forms; assay type: physicochemical
[4] = Pharmacokinetic analysis after single oral powder-in-capsule dose, rat plasma by LC/MS; assay type: in vivo, Sprague-Dawley rats; conditions: for AUC0-last / Cmax: Rat, PO, 5 mg/kg; for plasma concentrations relative to free base compound (I) (in words): Sprague Dawley rats, oral
Description: as §1, §2, §3
Plasma samples (20 μL) and spiked plasma standard samples were diluted five-fold with ice cold acetonitrile containing 100 ng/mL verapamil as internal standard. Samples and standards were filtered through 0.22 μm membranes in a 96-well format. Filtrates were then diluted with water to 30% acetonitrile.
10 μL of each sample and standard was injected onto a Waters Acquity CSH 1.7 μm 2.1×100 mm column at 0.6 mL/min by an Acquity UPLC. The C18 column was equilibrated at 5% acetonitrile in water. Compounds were eluted with a gradient to 99% acetonitrile. All mobile phases contained 0.1% (v/v) formic acid.
Column eluent was analyzed by an electrospray ionization tandem quadrupole mass spectrometry system (ESI-MS/MS, a Waters Xevo TQ). Eluent composition was analyzed for three ion-pairs specific for the internal standard and three ion-pairs specific for the analyte. Experimental samples were compared with standard curve samples to determine compound concentrations. Pharmacokinetic parameters were determined using the Excel plug-in “PKfit”.

| AUC0-last [1] | Cmax [1] | plasma concentrations relative to free base compound (I) (in words) [1] | Hygroscopicity (water sorption at 90% RH) [2] | Solubilitymax [3] | pHmax [3] | AUC0-last [4] | Cmax [4] | plasma concentrations relative to free base compound (I) (in words) [4] | Structure (SMILES) |
| --- | --- | --- | --- | --- | --- | --- | --- | --- | --- |
| 4000 ng·h/mL | 830 ng/mL | increased plasma concentrations | 3.9% | 100 µg/mL | <1.14 | 2100 ng·h/mL | 1120 ng/mL | increased plasma concentrations | Cc1cc(-c2cnn3c(NC[C@H]4C[C@@](C)(O)C4)cc(Oc4cccnc4)nc23)ccc1C(=O)NC1CC1 [Compound (I) bisphosphate hemihydrate] |
| 2760 ng·h/mL | 570 ng/mL | increased plasma concentrations | 2.3% | 630 µg/mL | 0.79 | 1640 ng·h/mL | 260 ng/mL | increased plasma concentrations | Cc1cc(-c2cnn3c(NC[C@H]4C[C@@](C)(O)C4)cc(Oc4cccnc4)nc23)ccc1C(=O)NC1CC1 [Compound (I) hydrobromide] |
| 40 ng·h/mL | 8 ng/mL |  | 0.8% | <1 µg/mL |  | 140 ng·h/mL | 11 ng/mL |  | Cc1cc(-c2cnn3c(NC[C@H]4C[C@@](C)(O)C4)cc(Oc4cccnc4)nc23)ccc1C(=O)NC1CC1 [Compound (I), N-cyclopropyl-4-(7-((((1s,3s)-3-hydroxy-3-methylcyclobutyl)methyl)amino)-5-(pyridin-3-yloxy)pyrazolo[1,5-a]pyrimidin-3-yl)-2-methylbenzamide] |
|  |  |  |  | <1 µg/mL |  |  |  |  | Cc1cc(-c2cnn3c(NC[C@H]4C[C@@](C)(O)C4)cc(Oc4cccnc4)nc23)ccc1C(=O)NC1CC1 [Compound I-monohydrate] |
